Data from patent US5578592A, “Cephalosporin derivatives” (Pfizer Inc., priority 1992, dated 1996).

Legend:
Assay type in all cases: cell-based
[1] = system: H. influenzae W/M 493; test: In vitro antibacterial activity (MIC), H. influenzae W/M 493; details: Haemophilus influenzae
[2] = system: E. Coli 10418; test: In vitro antibacterial activity (MIC), E. Coli 10418; details: Escherichia coli
[3] = system: S. aureus Russell; test: In vitro antibacterial activity (MIC), S. aureus Russell; details: Staphylococcus aureus
[4] = system: S. aureus Oxford; test: In vitro antibacterial activity (MIC), S. aureus Oxford; details: Staphylococcus aureus
[5] = system: H. Influenzae Q1; test: In vitro antibacterial activity (MIC), H. Influenzae Q1; details: Haemophilus influenzae
[6] = system: S. epidermis PHLN20; test: In vitro antibacterial activity (MIC), S. epidermis PHLN20

MIC [1]: 0.5 µg/mL
MIC [2]: 0.12 µg/mL
MIC [3]: 1 µg/mL
MIC [4]: 0.5 µg/mL
MIC [5]: < 0.06 µg/mL
MIC [6]: 0.25 µg/mL
SMILES: CO/N=C(\C(=O)N[C@@H]1C(=O)N2C(C(=O)O)=C3[C@H]4Oc5ccccc5[C@H]4[C@@H]3S[C@H]12)c1csc(N)n1 [Example 14, Sodium (4S,8R,9S,11R,12R)-12-[2-(2-aminothiazol-4-yl)-2-(Z)-methoxy-iminoacetamido]-13-oxo-5-oxa-10-thia-1-aza-6,7-benzotetracyclo[9.2.0.0^3,9.0^4,8]tridec-2-ene-carboxylate]
